Values quoted from earlier work, collected in US20120040927A1, “MEDICINAL ANTIFUNGAL AND STEROID CREAM INCORPORATING A BIOPOLYMER AND A PROCESS TO MAKE IT” (APEX LABORATORIES PRIVATE LIMITED, priority 2009, published 2012).
Read-outs that look alike come from different tables or passages of the source.

Experiments:
[1] = not given; remark: listed apart in the source
[2] = system: Trichophyton rubrum, Trichophyton mentagrophytes, Epidermophyton floccosum, Microsporum canis and Candida species including Candida albicans
[3] = not given; remark: listed apart in the source

Row | Compound | Protein binding | Solubility in ether ([1]; ether) | Solubility in polyethylene glycol 400, ethanol and chloroform ([1]; polyethylene glycol 400, ethanol, chloroform) | Solubility in water [1] | In vitro antifungal activity against isolates [2] | Absorption ([3]; humans, oral administration) | Absorption ([3]; topical and vaginal administration) | Solubility in alcohol and in chloroform ([1]; alcohol, chloroform)
1 | Clc1ccccc1C(c1ccccc1)(c1ccccc1)n1ccnc1 [Clotrimazole, 1-(o-Chloro-α, α-diphenylbenzyl)imidazole] | about 90% | sparingly soluble | very soluble | practically insoluble | fungistatic and fungicidal activity | well absorbed | minimally absorbed | 
2 | CC(=O)OCC(=O)[C@@]1(O)CC[C@H]2[C@@H]3CCC4=CC(=O)CC[C@]4(C)[C@H]3[C@@H](O)C[C@@]21C [Hydrocortisone Acetate] |  |  |  | insoluble |  |  |  | slightly soluble
